Assay results taken from patent US8653096B2, “Chemokine receptor antagonists and methods of use thereof” (Millennium Pharmaceuticals, Inc., priority 2001, dated 2014).

Biological target: T1, RANTES/MIP-1α chemokine receptor (CCR1) in THP-1 cell membranes (Homo sapiens, UniProt P32246)
T1 construct: Membranes were prepared from THP-1 cells (ATCC #TIB202); host or cells: THP-1 cells (membrane preparation)
T1 sequence (P32246 1-355): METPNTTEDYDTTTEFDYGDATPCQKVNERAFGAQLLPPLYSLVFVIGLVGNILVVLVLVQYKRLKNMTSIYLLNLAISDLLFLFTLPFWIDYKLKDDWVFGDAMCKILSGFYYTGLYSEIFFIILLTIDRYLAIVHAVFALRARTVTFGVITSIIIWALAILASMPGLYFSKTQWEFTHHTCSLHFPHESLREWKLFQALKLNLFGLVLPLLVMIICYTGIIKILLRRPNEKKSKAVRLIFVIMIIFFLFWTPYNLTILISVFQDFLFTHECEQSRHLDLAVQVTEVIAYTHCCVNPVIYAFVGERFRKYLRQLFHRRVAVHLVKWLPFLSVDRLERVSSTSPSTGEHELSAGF
Assay: Receptor binding assay: 125I-RANTES or 125I-MIP-1α binding to THP-1 cell membranes
Settings: inhibitor concentration required for 50% inhibition of specific binding; 125I-RANTES or 125I-MIP-1α as ligand, THP-1 cell membranes; read-out: IC50

## NCc1ccc2c(c1)C(=CCCN1CCC(O)(c3ccc(Cl)cc3)CC1)c1ccccc1CO2 [Example 29, 1-[3-(2-Aminomethyl-6,11-dihydrodibenz[b,e]oxepin-11-ylidene)propyl]-4-(4-chlorophenyl)piperidin-4-ol]
  IC50: < 1000 nM

## O=[N+]([O-])c1ccc2c(c1)C(=CCCN1CCC(O)(c3ccc(Cl)cc3)CC1)c1ccccc1CO2 [Example 30, 4-(4-Chlorophenyl)-1-[3-(6,11-dihydro-2-nitrodibenz[b,e]oxepin-11-ylidene)propyl]piperidin-4-ol]
  IC50: < 1000 nM

## Nc1ccc2c(c1)C(=CCCN1CCC(O)(c3ccc(Cl)cc3)CC1)c1ccccc1CO2 [Example 31, 1-[3-(2-Amino-6,11-dihydrodibenz[b,e]oxepin-11-ylidene)propyl]-4-(4-chlorophenyl)piperidin-4-ol]
  IC50: < 1000 nM

## Oc1ccc2c(c1)C(=CCCN1CCC(O)(c3ccc(Cl)cc3)CC1)c1ccccc1CO2 [Example 32, 4-(4-Chlorophenyl)-1-[3-(6,11-dihydro-2-hydroxydibenz[b,e]oxepin-11-ylidene)propyl]piperidin-4-ol]
  IC50: < 1000 nM

## COc1ccc2c(c1)C(=CCCN1CCC(O)(c3ccc(Cl)cc3)CC1)c1ccccc1CO2 [Example 33, 4-(4-Chlorophenyl)-1-[3-(6,11-dihydro-2-methoxydibenz[b,e]oxepin-11-ylidene)propyl]piperidin-4-ol]
  IC50: < 1000 nM

## CCOc1ccc2c(c1)C(=CCCN1CCC(O)(c3ccc(Cl)cc3)CC1)c1ccccc1CO2 [Example 34, 4-(4-Chlorophenyl)-1-[3-(6,11-dihydro-2-ethoxydibenz[b,e]oxepin-11-ylidene)propyl]piperidin-4-ol]
  IC50: < 1000 nM

## OC1(c2ccc(Cl)cc2)CCN(CCC=C2c3ccccc3COc3cc(Br)ccc32)CC1 [Example 35, 1-[3-(3-Bromo-6,11-dihydrodibenz [b,e]oxepin-11-ylidene)propyl]-4-(4-chlorophenyl)piperidin-4-ol]
  IC50: < 1000 nM

## COC1(c2ccc(Cl)cc2)CCN(CCC=C2c3ccccc3COc3ccccc32)CC1 [Example 36, 4-(4-Chlorophenyl)-1-[3-(6,11-dihydrodibenz[b,e]oxepin-11-ylidene)propyl]-4-methoxypiperidine]
  IC50: < 1000 nM

## OC1(c2ccc(Cl)cc2)CCN(CCC=C2c3cc(Br)ccc3OCc3ccsc32)CC1 [Example 38, 1-[3-(8-Bromo-4,10-dihydrothieno[3,2-c][1]benzoxepin-10-ylidene)propyl]piperidin-4-(4-chlorophenyl)-4-ol]
  IC50: < 1000 nM

## O=C1Nc2ccccc2C(=CCCN2CCC(O)(c3ccc(Cl)cc3)CC2)c2ccccc21 [Example 39, 4-(4-Chlorophenyl)-1-[3-(6,11-dihydro-6-oxo-5H-dibenz[b,e]azepin-11-ylidene)propyl]piperidin-4-ol]
  IC50: < 10000 nM

## CCN1C(=O)c2ccccc2C(=CCCN2CCC(O)(c3ccc(Cl)cc3)CC2)c2ccccc21 [Example 40, 4-(4-Chlorophenyl)-1-[3-(6,11-dihydro-5-ethyl-6-oxo-5H-dibenz[b,e]azepin-11-ylidene)propyl]piperidin-4-ol]
  IC50: < 1000 nM

## CCCCN1C(=O)c2ccccc2C(=CCCN2CCC(O)(c3ccc(Cl)cc3)CC2)c2ccccc21 [Example 41, 1-[3-(5-n-Butyl-6,11-dihydro-6-oxo-5H-dibenz[b,e]azepin-11-ylidene)propyl]-4-(4-chlorophenyl)-piperidin-4-ol]
  IC50: < 1000 nM

## O=C1c2ccccc2C(=CCCN2CCC(O)(c3ccc(Cl)cc3)CC2)c2ccccc2N1CCCO [Example 42, 4-(4-Chlorophenyl)-1-[3-(6,11-dihydro-5-(3-hydroxypropyl)-6-oxo-5H-dibenz[b,e]azepin-11-ylidene)propyl]piperidin-4-ol]
  IC50: < 1000 nM

## CC(C)(C)OC(=O)CN1C(=O)c2ccccc2C(=CCCN2CCC(O)(c3ccc(Cl)cc3)CC2)c2ccccc21 [Example 43, 1-[3-(5-tert-Butoxycarbonymethyl-6,11-dihydro-6-oxo-5H-dibenz[b,e]azepin-11-ylidene)propyl]-4-(4-chlorophenyl)-piperidin-4-ol]
  IC50: < 10000 nM

## O=C1Nc2ncccc2C(=CCCN2CCC(O)(c3ccc(Cl)cc3)CC2)c2ccccc21 [Example 55, 4-(4-Chlorophenyl)-1-[3-(10,11-dihydro-10-oxo-5H-pyrido[2,3-c][2]benzazepin-5-ylidene)propyl]piperidin-4-ol]
  IC50: < 1000 nM

## CN1C(=O)c2ccccc2C(=CCCN2CCC(O)(c3ccc(Cl)cc3)CC2)c2cccnc21 [Example 56, 4-(4-Chlorophenyl)-1-[3-(10,11-dihydro-11-methyl-10-oxo-5H-pyrido[2,3-c][2]benzazepin-5-ylidene)propyl]piperidin-4-ol]
  IC50: < 1000 nM

## COc1ccc2c(c1)C(=CCN1CCC(O)(c3ccc(Cl)cc3)CC1)c1cccnc1CO2 [Example 57, 4-(4-Chlorophenyl)-1-[3-(5,11-dihydro-7-methoxy[1]benzoxepino [2,3-b]pyridin-5-ylidene)ethyl]piperidin-4-ol]
  IC50: < 10000 nM

## COc1ccc2c(c1)C(=CCCN1CCC(O)(c3ccccc3)CC1)c1cccnc1CO2 [Example 59, 1-[3-(5,11-Dihydro-7-methoxy[1]benzoxepino[2,3-b]pyridin-5-ylidene)propyl]piperidin-4-phenyl-4-ol]
  IC50: < 1000 nM

## COc1ccc2c(c1)C(=CCCN1CCC(n3c(=O)[nH]c4ccccc43)CC1)c1cccnc1CO2 [Example 67, 1-[3-(5,11-Dihydro-7-methoxy[1]benzoxepino[2,3-b]pyridin-5-ylidene)propyl]-4-(2-keto-1-benzimidazolinyl)piperidine]
  IC50: < 1000 nM

## COc1ccc2c(c1)C(=CCCN1CCC(n3c(=O)n(C)c4ccccc43)CC1)c1cccnc1CO2 [Example 68, 1-[3-(5,11-Dihydro-7-methoxy[1]benzoxepino[2,3-b]pyridin-5-ylidene)propyl]-4-(2-keto-3-methyl-1-benzimidazolinyl)piperidine]
  IC50: < 10000 nM

## COc1ccc2c(c1)C(=CCCN1CCC(O)(c3ccc(C)cc3)CC1)c1cccnc1CO2 [Example 78, 1-[3-(5,11-Dihydro-7-methoxy[1]benzoxepino[2,3-b]pyridin-5-ylidene)propyl]-4-(p-toly)piperidin-4-ol]
  IC50: < 1000 nM

## COc1ccc2c(c1)C(=CCCN1CCN(S(=O)(=O)c3ccc(C)cc3)CC1)c1cccnc1CO2 [Example 89, 1-[3-(5,11-Dihydro-7-methoxy[1]benzoxepino[2,3-b]pyridin-5-ylidene)propyl]-4-(p-tosyl)piperazine]
  IC50: > 10000 nM

## CN(C)CCOc1ccc2c(c1)C(=CCCN1CCC(O)(c3ccc(Cl)cc3)CC1)c1cccnc1CO2 [Example 131]
  IC50: < 1000 nM

## OC1(c2ccc(Cl)cc2)CCN(CCC=C2c3cc(OCc4nnn[nH]4)ccc3OCc3ncccc32)CC1 [Example 132]
  IC50: < 1000 nM

## CCOC(=O)COc1ccc2c(c1)C(=CCCN1CCC(c3ccc(Cl)cc3)CC1)c1cccnc1CO2 [Example 153, 4-(4-Chlorophenyl)-1-[3-(5,11-dihydro-7-thoxycarbonylmethyloxy[1]benzoxepino[2,3-b]pyridin-5-ylidene)propyl]piperidine]
  IC50: < 1000 nM

## O=C(O)COc1ccc2c(c1)C(=CCCN1CCC(c3ccc(Cl)cc3)CC1)c1cccnc1CO2 [Example 154]
  IC50: < 1000 nM

## COCCOc1ccc2c(c1)C(=CCCN1CCC(O)(c3ccc(Cl)cc3)CC1)c1cccnc1CO2 [Example 175]
  IC50: < 1000 nM

## CN(C)C(=O)C(C)(C)Oc1ccc2c(c1)C(=CCCN1CCC(O)(c3ccc(Cl)cc3)CC1)c1cccnc1CO2 [Example 176, 4-(4-Chlorophenyl)-1-[3-(7-(1-dimethyaminocarbonyl-1-methyl)ethyloxy-5,11-dihydro[1]benzoxepino[2,3-b]pyridin-5-ylidene)propyl]piperidin-4-ol]
  IC50: < 1000 nM

## O=C(O)C1(Oc2ccc3c(c2)C(=CCCN2CCC(O)(c4ccc(Cl)cc4)CC2)c2cccnc2CO3)CCC1 [Example 180, 1-[3-(7-(1-Carboxy)cyclbutoxy-5,11-dihydro[1]benzoxepino[2,3-b]pyridin-5-ylidene)propyl]-4-(4-chlorophenyl)piperidin-4-ol]
  IC50: < 1000 nM

## Oc1ccc2c(c1)C(=CCCN1CC=C(c3ccc(Cl)cc3)CC1)c1cccnc1CO2 [Example 193]
  IC50: < 1000 nM

## CC(C)(CO)Oc1ccc2c(c1)C(=CCCN1CCC(O)(c3ccc(Cl)cc3)CC1)c1cccnc1CO2 [Example 199, 4-(4-Chlorophenyl)-1-[3-(7-(2-(1-hydroxy-2-methyl)propyl)oxy-5,11-dihydro[1]benzoxepino[2,3-b]pyridin-5-ylidene)propyl]piperidin-4-ol]
  IC50: < 1000 nM

## CC(C)(O)COc1ccc2c(c1)C(=CCCN1CCC(O)(c3ccc(Cl)cc3)CC1)c1cccnc1CO2 [Example 200, 4-(4-Chlorophenyl)-1-[3-(7-(1-(2-methyl-2-hydroxy)propyl)oxy-5,11-dihydro[1]benzoxepino[2,3-b]pyridin-5-ylidene)propyl]piperidin-4-ol]
  IC50: < 1000 nM

## CCOCCOc1ccc2c(c1)C(=CCCN1CCC(O)(c3ccc(Cl)cc3)CC1)c1cccnc1CO2 [Example 203]
  IC50: < 1000 nM

## OCC(O)COc1ccc2c(c1)C(=CCCN1CCC(O)(c3ccc(Cl)cc3)CC1)c1cccnc1CO2 (stereo not shown) [Example 205, 4-(4-Chlorophenyl)-1-[3-(5,11-dihydro-7-(1-(2,3-dihydroxy)propyloxy)[1]benzoxepino[2,3-b]pyridin-5-ylidene)propyl]piperidin-4-ol]
  IC50: < 1000 nM
